In patent publication US20110152229A1, “BETULINIC ACID DERIVATIVES AS ANTI-HIV AGENTS” (Duke University, priority 2006, published 2011):
Read-outs that look alike come from different tables or passages of the source.

How the values were obtained:
HIV-1 NL4-3 = test: Anti-HIV assay: HIV-1 NL4-3 replication in MT4 cells (p24 ELISA); type: cell-based
From the text: Anti-HIV assay: A previously known HIV-1 infectivity assay was used in the experiments (See Zhu, et al. Proc. Natl. Acad. Sci. U.S.A. 2001, 98, 15227). A 96-well microtiter plate was used to set up the HIV-1 NL4-3 replication assay. HIV-1 NL4-3 at a multiplicity of infection (MOI) of 0.01 was used to infect MT4 cells. Culture supernatants were collected on day 4 post infection for p24 assay using an ELISA kit from ZeptoMetrix Corporation (Buffalo, N.Y.). Cell fusion assay: TZM cells that express luciferase upon fusion with envelope-expressing COS cells were used as fusion partners. The fusion assays were performed by transfecting monkey kidney cells (COS) with the expression vector pSRHS that contains the HIV-1 NL4-3 envelope genes. Electroporation was performed to express the HIV-1 envelope on COS cells. Briefly, COS cells (10^6) in culture medium were incubated with 2 μg of the envelope expression vector on ice for 10 min. Electroporation was performed using a gene pulser (BioRad, Hercules, Calif.) with capacitance set at 950 μF and voltage at 150 V. The transfected COS cells were cultured for one day before mixing with TZM cells. TZM cells (10×10^4) were incubated with COS cells (10^4) in 96-well flat-bottomed plates (Costar) in 100 μl culture medium. Compounds to be tested at various concentrations in 10 μl of culture medium were incubated with the cell mixtures at 37° C. for 24 hours. A Promega luciferase assay kit was used to quantify luciferase activity in the fused cells using a Biotek luminometer. The drug concentration that reduced the control HIV-1 envelope-mediated fusion by 50% is defined as 50% effective concentration (EC50). HIV-1 maturation assay: MT4 cells (10^5 cells/mL) were infected with HIV-1 NL4-3 at a multiplicity of infection (MOI) of 0.01 infectious units/cells for three days. The culture medium was removed and the infected cells were resuspended at 5×10^5 cells/mL and treated with BA derivatives at various concentrations. The virions in the culture supernatant were collected one day after drug treatment. The viral particles were spun down and subjected to Western Blot analysis of p24 and p25 as previously described. (See Zhou, et al. J. Virol. 2004, 78, 922 and Zhou, et al., Retrovirology 2004, 1, 15.)
Table 1 illustrated the effect of compound 11, 16-20 and 18b against HIV-NL4-3 in MT4 cells.

MT4 cells = test: Reduction of viable cells in a 4-day assay (MT4 cells); type: cell-based; conditions: Homo sapiens, read-out: IC50 (drug concentration that resulted in a 50% reduction of viable cells)
HIV-1 NL4-3 envelope = test: Cell fusion assay (luciferase-based; TZM cells with envelope-expressing COS cells); conditions: FIG. 1; TZM/COS fusion partners, luciferase readout
From the text: (§1) Anti-HIV assay: A previously known HIV-1 infectivity assay was used in the experiments (See Zhu, et al. Proc. Natl. Acad. Sci. U.S.A. 2001, 98, 15227). A 96-well microtiter plate was used to set up the HIV-1 NL4-3 replication assay. HIV-1 NL4-3 at a multiplicity of infection (MOI) of 0.01 was used to infect MT4 cells. Culture supernatants were collected on day 4 post infection for p24 assay using an ELISA kit from ZeptoMetrix Corporation (Buffalo, N.Y.). Cell fusion assay: TZM cells that express luciferase upon fusion with envelope-expressing COS cells were used as fusion partners. The fusion assays were performed by transfecting monkey kidney cells (COS) with the expression vector pSRHS that contains the HIV-1 NL4-3 envelope genes. Electroporation was performed to express the HIV-1 envelope on COS cells. Briefly, COS cells (10^6) in culture medium were incubated with 2 μg of the envelope expression vector on ice for 10 min. Electroporation was performed using a gene pulser (BioRad, Hercules, Calif.) with capacitance set at 950 μF and voltage at 150 V. The transfected COS cells were cultured for one day before mixing with TZM cells. TZM cells (10×10^4) were incubated with COS cells (10^4) in 96-well flat-bottomed plates (Costar) in 100 μl culture medium. […] A Promega luciferase assay kit was used to quantify luciferase activity in the fused cells using a Biotek luminometer. […]

HIV-1 p25 processing = test: HIV-1 maturation assay (Western blot of p24 and p25); type: cell-based; conditions: FIG. 2; p25 detected by Western blot
From the text: as §1

[1] = Human immunodeficiency virus 1, NL43, HIV-NL4-3 in MT4 cells, average of at least two experiments, read-out: EC50 (concentration that inhibits HIV-1 replication by 50%)
[2] = 96 h, cytotoxicity, 4-day assay, MT4 cells, average of at least two experiments
[3] = Human immunodeficiency virus 1, NL43, MT4, read-out: EC50 (concentration that inhibits HIV-1 replication by 50%)

C=C(C)[C@@H]1CC[C@]2(C(=O)O)CC[C@]3(C)[C@H](CC[C@@H]4[C@@]5(C)CC[C@H](O)C(C)(C)[C@@H]5CC[C@]43C)[C@@H]12 [Betulinic acid]
inhibition of NL4-3 replication (HIV-1 NL4-3; negative control, concentration not given): did not inhibit

C=C(C)[C@@H]1CC[C@]2(C(=O)On3nnc4ccccc43)CC[C@]3(C)[C@H](CC[C@@H]4[C@@]5(C)CC[C@H](OC(=O)C(C)(C)CC(=O)O)C(C)(C)[C@@H]5CC[C@]43C)[C@@H]12 [Compound 11, O-[3β-O-(2′,2′-Dimethylsuccinyl)-lup-20(29)-en-28-oyl]-1-hydroxybenzotriazole]
EC50 (HIV-1 NL4-3; [1]): 35 nM
IC50 (MT4 cells; [2]): 2500 nM
melting point: 151 to 154 °C

C=C(C)[C@@H]1CC[C@]2(C(=O)NCCCCCNC(C)=O)CC[C@]3(C)[C@H](CC[C@@H]4[C@@]5(C)CC[C@H](OC(=O)CC(C)(C)C(=O)O)C(C)(C)[C@@H]5CC[C@]43C)[C@@H]12 [Compound 16, [[N-[3β-O-(3′,3′-dimethylsuccinyl)-lup-20(29)-en-28-oyl]-5-aminopentyl]-carbamoyl]methane]
EC50 (HIV-1 NL4-3; [1]): 12 nM
IC50 (MT4 cells; [2]): 9000 nM
melting point: 137 °C (dec.)

C=C(C)[C@@H]1CC[C@]2(C(=O)NCCCCCCNC(C)=O)CC[C@]3(C)[C@H](CC[C@@H]4[C@@]5(C)CC[C@H](OC(=O)CC(C)(C)C(=O)O)C(C)(C)[C@@H]5CC[C@]43C)[C@@H]12 [Compound 17, [[N-[3β-O-(3′,3′-Dimethylsuccinyl)-lup-20(29)-en-28-oyl]-6-aminohexyl]-carbamoyl]methane]
EC50 (HIV-1 NL4-3; [1]): 7 nM
IC50 (MT4 cells; [2]): 7500 nM
melting point: 137 °C (dec.)

C=C(C)[C@@H]1CC[C@]2(C(=O)NCCCCCCCNC(C)=O)CC[C@]3(C)[C@H](CC[C@@H]4[C@@]5(C)CC[C@H](OC(=O)CC(C)(C)C(=O)O)C(C)(C)[C@@H]5CC[C@]43C)[C@@H]12 [Compound 18, [[N-[3β-O-(3′,3′-Dimethylsuccinyl)-lup-20(29)-en-28-oyl]-7-aminoheptyl]-carbamoyl]methane]
EC50 (HIV-1 NL4-3; [3]): 2.6 nM
IC50 (MT4 cells; MT4, 96 h): 8000 nM
anti-fusion activity: HIV-1 envelope mediated membrane fusion (HIV-1 NL4-3 envelope): inhibits HIV-1 envelope mediated membrane fusion
anti-maturation activity: HIV-1 p25 processing (HIV-1 p25 processing): interfere with HIV-1 p25 processing
melting point: 117 to 120 °C

C=C(C)[C@@H]1CC[C@]2(C(=O)NCCCCCCCNC(C)=O)CC[C@]3(C)[C@H](CC[C@@H]4[C@@]5(C)CC[C@H](O)C(C)(C)[C@@H]5CC[C@]43C)[C@@H]12 [Compound 18b, [[N-[3β-Hydroxy-lup-20(29)-en-28-oyl]-7-aminoheptyl]-carbamoyl]methane]
EC50 (HIV-1 NL4-3; [3]): 47 nM
IC50 (MT4 cells; MT4, 96 h): > 10000 nM
anti-fusion activity: HIV-1 envelope mediated membrane fusion (HIV-1 NL4-3 envelope): inhibits HIV-1 envelope mediated membrane fusion

C=C(C)[C@@H]1CC[C@]2(C(=O)NCCCCCCCCNC(C)=O)CC[C@]3(C)[C@H](CC[C@@H]4[C@@]5(C)CC[C@H](OC(=O)CC(C)(C)C(=O)O)C(C)(C)[C@@H]5CC[C@]43C)[C@@H]12 [Compound 19, [[N-[3β-O-(3′,3′-Dimethylsuccinyl)-lup-20(29)-en-28-oyl]-8-aminooctyl]-carbamoyl]methane]
EC50 (HIV-1 NL4-3; [1]): 3.6 nM
IC50 (MT4 cells; [2]): 7000 nM
melting point: 113 to 115 °C

C=C(C)[C@@H]1CC[C@]2(C(=O)NCCCCCCCCCNC(C)=O)CC[C@]3(C)[C@H](CC[C@@H]4[C@@]5(C)CC[C@H](OC(=O)CC(C)(C)C(=O)O)C(C)(C)[C@@H]5CC[C@]43C)[C@@H]12 [Compound 20, [[N-[3β-O-(3′,3′-Dimethylsuccinyl)-lup-20(29)-en-28-oyl]-9-aminonoyl]-carbamoyl]methane]
EC50 (HIV-1 NL4-3; [1]): 12 nM
IC50 (MT4 cells; [2]): 7400 nM
melting point: 120 to 122 °C
